Data set [1] concerns the target T1, human IL-23R (Homo sapiens, UniProt Q5VWK5).
T1 sequence (Q5VWK5 22-629): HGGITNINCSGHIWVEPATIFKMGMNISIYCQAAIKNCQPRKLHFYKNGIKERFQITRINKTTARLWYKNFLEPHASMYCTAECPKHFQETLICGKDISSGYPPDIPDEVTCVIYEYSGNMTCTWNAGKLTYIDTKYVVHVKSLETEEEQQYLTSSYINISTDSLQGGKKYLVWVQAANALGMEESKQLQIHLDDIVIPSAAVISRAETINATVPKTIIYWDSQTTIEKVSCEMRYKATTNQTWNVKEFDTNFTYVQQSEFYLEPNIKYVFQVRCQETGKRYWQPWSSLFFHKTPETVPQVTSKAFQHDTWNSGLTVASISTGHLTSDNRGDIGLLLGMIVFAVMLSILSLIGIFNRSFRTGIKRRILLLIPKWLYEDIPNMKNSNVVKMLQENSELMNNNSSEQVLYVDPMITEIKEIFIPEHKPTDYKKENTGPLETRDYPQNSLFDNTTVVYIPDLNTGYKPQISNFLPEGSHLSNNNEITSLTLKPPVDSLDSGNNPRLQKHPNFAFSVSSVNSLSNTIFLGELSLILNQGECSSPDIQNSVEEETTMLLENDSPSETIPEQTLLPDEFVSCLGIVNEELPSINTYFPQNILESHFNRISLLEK
Description: biochemical. The conditions noted are these: for Emax: read-out: % displacement (hIL-23R NIuc). In a few lines: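 BRET displacement of a TAMRA-labelled reference compound from N-terminal Nanoluc-IL-23R fusion protein in membranes from stably transfected HEK293 cells. Incubation 2 h at room temperature, then Nanoluc substrate was added and the TAMRA/Nanoluc ratio read. IC50 and maximal displacement came from 4-parameter logistic fits.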

A short description of data set [2]: Peptide stability in simulated intestinal fluid (SIF). In kind it is in vitro ADME. The conditions noted are these: 37 °C, porcine pancreatin; for remaining at 1 h, 10 µM / remaining at 4 h, 10 µM: pig; for remaining at 1 h, 10 µM: pH 6.8, 1 h; for remaining at 4 h, 10 µM / SIF (% remaining 4 h): pH 6.8, 4 h; for SIF (% remaining 4 h): 10 µM. Summed up:
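Peptides were incubated at 37 °C with gentle shaking in pH 6.8 potassium phosphate SIF containing porcine pancreatin (10 g/L). Supernatants were analysed by LC-HRMS. Percent remaining at each timepoint, including 4 h, was calculated relative to time zero from absolute peak areas.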

Data set [3] in a line: Peptide stability in simulated gastric fluid (SGF). In kind it is in vitro ADME. The note with it: pig, simulated gastric fluid (SGF) with porcine pepsin (3.2 g/L), pH 1.2, 10 µM, 37 °C, porcine pepsin; for remaining at 1 h, 10 µM: pH 1.2, 1 h, read-out: SGF (% remaining 1 h); for remaining at 4 h, 10 µM: pH 1.2, 4 h, read-out: SGF (% remaining 4 h). In a few lines: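 Peptide incubated at 37 °C with gentle shaking in SGF (NaCl, pH 1.2). Samples centrifuged, diluted and analysed by LC-HRMS; percent remaining at each timepoint from absolute peak areas relative to time zero, with 4 h as the reference point.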

Setting [4] is: read-out: SIF (% remaining 4 h).
Where [5] appears, read: SAR tables, % peptide remaining, read-out: SIF (% after 4 h).

The term IC50 denotes the midpoint of a concentration-inhibition curve. A higher IC50 goes with weaker potency. With `CC[C@H](C)[C@@H]1NC(=O)[C@@H]2CCCCNC(=O)CC[C@@H](C(=O)NCCc3cccnc3)NC(=O)[C@](C)(C(C)C)NC(=O)[C@H](Cc3ccc4ccccc4c3)NC(=O)[C@H](Cc3ccc(OCCN)cc3)NC(=O)[C@H](CCC(=O)N2)NC(=O)[C@H](CCC(N)=O)NC(=O)[C@H](Cc2c[nH]c3ccccc23)NC(=O)[C@H](C(C)C)NC1=O` [Compound 26, K(1c)(6c)^†IVWQE(6c)[Y(2-aminoethoxy)][2-Nal][2-Me-Val]E(1c)-[NH-2-(pyridin-3-yl)ethyl]], in data set [1], the “% displacement (hIL-23R NIuc)” value stood at 101% and the IC50 was found to be 320 nM. The remaining at 1 h, 10 µM in data set [2] was 97%. Besides, in data set [2] (setting [4]), the remaining at 4 h, 10 µM was 96%. Moreover, in data set [3], the remaining at 1 h, 10 µM was 95% and the remaining at 4 h, 10 µM is 96%.

Consider `CC[C@H](C)[C@@H]1NC(=O)[C@@H]2CCCCNC(=O)CC[C@@H](C(=O)N[C@@H](Cc3cnc4ccccc4c3)C(=O)N[C@@H](Cc3cccnc3)C(=O)NC)NC(=O)[C@](C)(CC(C)C)NC(=O)[C@H](Cc3ccc4ccccc4c3)NC(=O)[C@H](Cc3ccc(OCCN)cc3)NC(=O)[C@H](CCC(=O)N2)NC(=O)[C@H](CCC(N)=O)NC(=O)[C@H](Cc2c[nH]c3ccccc23)NC(=O)[C@H](C(C)C)NC1=O` [Compound 71, K(1c)(6c)^†IVWQE(6c)[Y(2-aminoethoxy)][2-Nal][2-Me-Leu]E(1c)[3-(3-Quinolinyl)-Ala][3-(3-Pyridyl)-Ala]-[NHMe]], for which, in data set [1], the “% displacement (hIL-23R NIuc)” value came to 100% and the IC50 was found to be 0.084 nM. Moreover, in data set [2], the “SIF (% remaining 4 h)” value is reported as 6% and the remaining at 1 h, 10 µM is 55%. Further, in data set [2] (setting [5]), the remaining at 4 h, 10 µM is 6%. In data set [3], the remaining at 1 h, 10 µM is 100% and the remaining at 4 h, 10 µM was 100%.

The molecule `CC[C@H](C)[C@H]1CC(=O)N[C@@H](Cc2c[nH]c3ccccc23)C(=O)N[C@@H](CCC(N)=O)C(=O)N[C@H]2CCC(=O)N[C@@H](CCCCNC(=O)CC[C@@H](C(=O)N[C@@H](CCN)C(=O)N[C@@H](Cc3cccnc3)C(=O)NC)NC(=O)[C@](C)(CC(C)C)NC(=O)[C@H](Cc3ccc4ccccc4c3)NC(=O)[C@H](Cc3ccc(OCCN)cc3)NC2=O)C(=O)N1` [Compound 96, K(1c)(6c)^†[beta-hlle]WQE(6c)[Y(2-aminoethoxy)][2-Nal][2-Me-Leu]E(1c)[Dab][3-(3-Pyridyl)-Ala]-[NHMe]] displayed an IC50 in data set [1] of 0.03 nM. Moreover, the Emax in data set [1] was 91%. Besides, the results for the remaining at 1 h, 10 µM in data set [2] and in data set [3] were 103% and 105%, respectively. Also, the remaining at 4 h, 10 µM in data set [2] (setting [4]) and in data set [3] was 105% in each case.

For the molecule `CC[C@H](C)[C@@H]1NC(=O)[C@@H]2CCCCNC(=O)CC[C@@H](C(=O)N[C@@H](CCN)C(=O)NCCc3cccnc3)NC(=O)[C@](C)(CC(C)C)NC(=O)[C@H](Cc3ccc4ccccc4c3)NC(=O)[C@H](Cc3ccc(OCCN)cc3)NC(=O)[C@H](CCC(=O)N2)NC(=O)[C@H](CCC(N)=O)NC(=O)[C@H](Cc2c[nH]c3ccccc23)NC(=O)[C@H](C(C)C)NC1=O` [Compound 66, K(1c)(6c)^†IVWQE(6c)[Y(2-aminoethoxy)][2-Nal][2-Me-Leu]E(1c)[Dab]-[NH-2-(pyridin-3-yl)ethyl]], in data set [1], the IC50 was determined as 0.12 nM and the Emax came out at 101%. Besides, the remaining at 1 h, 10 µM in data set [2] is 108%. In addition, the remaining at 4 h, 10 µM in data set [2] (setting [4]) was 112%. Moreover, in data set [3], the remaining at 1 h, 10 µM was 98% and the remaining at 4 h, 10 µM is 97%.

`CNC(=O)[C@H](Cc1cccnc1)NC(=O)[C@H](CCN)NC(=O)[C@@H]1CCC(=O)NCCCC[C@@H]2NC(=O)CC[C@H](NC(=O)[C@H](CCC(N)=O)NC(=O)[C@H](Cc3c[nH]c4ccccc34)NC(=O)CCNC2=O)C(=O)N[C@@H](Cc2ccncc2)C(=O)N[C@@H](Cc2ccc3ccccc3c2)C(=O)N[C@@](C)(CC(C)C)C(=O)N1` [Compound 85, K(1c)(6c)^†[3-Aminopropanoyl]WQE(6c)[3-(4-Pyridyl)-Ala][2-Nal][2-Me-Leu]E(1c)[Dab][3-(3-Pyridyl)-Ala]-[NHMe]] showed an IC50 in data set [1] of 0.17 nM. In addition, the Emax in data set [1] came out at 97%. Moreover, the figures for the remaining at 1 h, 10 µM in data set [2] and in data set [3] were 103% and 109%, respectively. Moreover, the remaining at 4 h, 10 µM was 85% in data set [2] (setting [4]) and 110% in data set [3].

For `CNC(=O)[C@H](Cc1cccnc1)NC(=O)[C@H](Cc1cccnc1)NC(=O)[C@@H]1CCC(=O)NCCCC[C@@H]2NC(=O)CC[C@H](NC(=O)[C@H](CCC(N)=O)NC(=O)[C@H](Cc3c[nH]c4ccccc34)NC(=O)CCNC2=O)C(=O)N[C@@H](Cc2ccc(OCCN)cc2)C(=O)N[C@@H](Cc2ccc3ccccc3c2)C(=O)N[C@@](C)(CC(C)C)C(=O)N1` [Compound 87, K(1c)(6c)^†[3-Aminopropanoyl]WQE(6c)[Y(2-aminoethoxy)][2-Nal][2-Me-Leu]E(1 c)[3-(3-Pyridyl)-Ala][3-(3-Pyridyl)-Ala]-[NHMe]], in data set [1], the “% displacement (hIL-23R NIuc)” value is recorded as 103% and the IC50 was determined as 0.039 nM. Also, the remaining at 1 h, 10 µM in data set [2] was 1%. In addition, the remaining at 4 h, 10 µM in data set [2] (setting [4]) was 1%. In addition, in data set [3], the remaining at 1 h, 10 µM was 87% and the remaining at 4 h, 10 µM is 89%.

Turning to `CNC(=O)[C@H](Cc1cccnc1)NC(=O)[C@H](CCN)NC(=O)[C@@H]1CCC(=O)NCCCC[C@@H]2NC(=O)CC[C@H](NC(=O)[C@H](CCC(N)=O)NC(=O)[C@H](Cc3c[nH]c4ccccc34)NC(=O)CCNC2=O)C(=O)N[C@@H](Cc2cccnc2)C(=O)N[C@@H](Cc2ccc3ccccc3c2)C(=O)N[C@@](C)(CC(C)C)C(=O)N1` [Compound 83, K(1c)(6c)^†[3-Aminopropanoyl]WQE(6c)[3-(3-Pyridyl)-Ala][2-Nal][2-Me-Leu]E(1c)[Dab][3-(3-Pyridyl)-Ala]-[NHMe]], in data set [1], half-maximal inhibition (IC50) required 0.38 nM and the Emax is 101%. Moreover, the remaining at 1 h, 10 µM in data set [2] was 94%. Further, the remaining at 4 h, 10 µM in data set [2] (setting [4]) was 86%. In addition, in data set [3], the remaining at 1 h, 10 µM is 106% and the remaining at 4 h, 10 µM is 97%.

For the molecule `CC[C@H](C)[C@@H]1NC(=O)[C@@H]2CCCCNC(=O)CC[C@@H](C(=O)NCCCCC(=O)N[C@@H](Cc3cccnc3)C(=O)NC)NC(=O)[C@](C)(CC(C)C)NC(=O)[C@H](Cc3ccc4ccccc4c3)NC(=O)[C@H](Cc3ccc(OCCN)cc3)NC(=O)[C@H](CCC(=O)N2)NC(=O)[C@H](CCC(N)=O)NC(=O)[C@H](Cc2c[nH]c3ccccc23)NC(=O)[C@H](C(C)C)NC1=O` [Compound 64, K(1c)(6c)^†IVWQE(6c)[Y(2-aminoethoxy)][2-Nal][2-Me-Leu]E(1c)[5-Aminopentanoyl][3-(3-Pyridyl)-Ala]-[NHMe]], in data set [1], the midpoint of inhibition, the IC50, lay at 11 nM and the Emax amounted to 99%. In data set [2], the “SIF (% remaining 4 h)” value is given as 86% and the remaining at 1 h, 10 µM was 93%. Moreover, the remaining at 4 h, 10 µM in data set [2] (setting [5]) is 86%. Besides, in data set [3], the remaining at 1 h, 10 µM is 102% and the remaining at 4 h, 10 µM is 90%.

Source of the values: EP4471048A1, “PEPTIDE INHIBITORS OF INTERLEUKIN-23 RECEPTOR” (Zealand Pharma A/S, priority 2023, dated 2024).
